pEC50: −log10 of the molar value. Like-named read-outs stand apart in the source and are kept apart here. A value given as a limit tells only on which side of the number the result lay.

Drawing on patent US12227520B2 (priority 2019, dated 2025), this text covers EC50 and CC50 for 13 compounds.

Data set [1] has as its system HIV-1 (IIIB). Nature of the data set: Antiviral assay in MT-4 cells (HIV MT-4 antiviral assay). The format is cell-based. As to conditions: HIV-1 (IIIB) in MT-4 cells, 5 days incubation. On the procedure:
Compounds were tested in a high-throughput 384-well assay format for their ability to inhibit the replication of HIV-1 (IIIB) in MT-4 cells. Compounds were serially diluted (1:3) in DMSO on 384-well polypropylene plates and further diluted 200-fold into complete RPMI media (10% FBS, 1% P/S) using the Biotek Micro Flow and Labcyte ECHO acoustic dispenser. Each plate contained up to 8 test compounds, with negative (No Drug Control) and 5 μM AZT positive controls. MT-4 cells were pre-infected with 10 μL of either RPMI (mock-infected) or a fresh 1:250 dilution of HIV-1 IIIB concentrated virus stock. Infected and uninfected MT-4 cells were further diluted in complete RPMI media and added to each plate using a Micro Flow dispenser. After 5 days incubation in a humidified and temperature controlled incubator (37° C.), Cell Titer Glo (Promega) was added to the assay plates and chemiluminescence read using an Envision plate-reader.

The nature of data set [2]: Cytotoxicity assay in MT-4 cells. The format is cell-based, human. The conditions noted are these: human, uninfected MT-4 cells, 5 days incubation; read-out: CC50. On the procedure:
Each plate contained up to 8 test compounds, with negative (No Drug Control) and 5 μM AZT positive controls. MT-4 cells were pre-infected with 10 μL of either RPMI (mock-infected) or a fresh 1:250 dilution of HIV-1 IIIB concentrated virus stock. Infected and uninfected MT-4 cells were further diluted in complete RPMI media and added to each plate using a Micro Flow dispenser. After 5 days incubation in a humidified and temperature controlled incubator (37° C.), Cell Titer Glo (Promega) was added to the assay plates and chemiluminescence read using an Envision plate-reader. […] Assays were performed as above except uninfected MT-4 cells were added to each well containing test compound. In addition, 10 μM puromycin was added to the last column of each assay plate to assess a base level of cytotoxicity.

For data set [3], the system named is pLai RLuc reporter virus. As to the kind of experiment: microbe, parasite or virus in culture. The conditions noted are these: Human immunodeficiency virus 1, 72 h. The format is cell-based, HIV. On the procedure: To quantify the amount of protein binding to human serum, compounds were serially diluted (1:3) in DMSO and acoustically transferred onto 384-well assay plates via a Labcyte ECHO robot. Each plate contained up to 8 test compounds, including negative and positive controls, (DMSO, 5 μM AZT respectively). Assay plates were prepared in duplicate, and tested in either CCM (cell culture media) or HS/CCM (human serum/cell culture media). MT-4 cells were first pre-infected with pLai RLuc reporter virus for 2 h at 37° C., then further diluted in either CCM (RPMI media, 10% FBS, 1% P/S) or HS/CCM (RPMI media, 10% FBS, 50% HS, 1% P/S), and subsequently added to each plate using a Biotek Micro Flow dispenser. After a 72-h incubation in a humidified and temperature controlled incubator (37° C.), Renilla Glo (Promega) was added to all assay plates and chemiluminescence read using an Envision plate-reader. […] To determine the amount of protein binding, EC50 fold shifts (or EC50 shifts) were calculated by dividing EC50 (HS/CCM)/EC50 (CCM).

[4] abbreviates: Human immunodeficiency virus 1, IIIB, MT4, 120 h, read-out: EC50.

In general, CC50 refers to the concentration at which the toxic effect on the cells reaches its halfway point. Turning to `O=C(NCc1c(F)cc(F)cc1F)c1cn2c(c(O)c1=O)C(=O)N1CCCC2CC1` (racemic) [Example 24, 11-hydroxy-1,10-dioxo-N-(2,4,6-trifluorobenzyl)-1,3,4,5,6,10-hexahydro-2,6-ethanopyrido[1,2-a][1,4]diazocine-9-carboxamide], in data set [1] (setting [4]), the pEC50 is 7.56. For the same compound, the CC50 at 5 days in data set [2] amounted to 13800 nM.

On to `O=C(NCc1ccc(F)cc1F)c1cn2c(c(O)c1=O)C(=O)N1CCCOCC2C1` (racemic) [rac-1, N-(2,4-Difluorobenzyl)-13-hydroxy-1,12-dioxo-1,4,5,7,8,12-hexahydro-3H-2,8-methanopyrido[1,2-d][1,4,7]oxadiazecine-11-carboxamide], for which, in data set [1] (setting [4]), the pEC50 is 8.41. The half-maximal cytotoxic concentration (CC50) at 5 days in data set [2] is greater than 47900 nM.

On to `CC1(F)CCCN2CC1n1cc(C(=O)NCc3ccc(F)cc3F)c(=O)c(O)c1C2=O` (single isomer, unassigned) [Example 17-1a, N-(2,4-difluorobenzyl)-6-fluoro-12-hydroxy-6-methyl-1,11-dioxo-1,4,5,6,7,11-hexahydro-3H-2,7-methanopyrido[1,2-a][1,4]diazonine-10-carboxamide], for which, in data set [1] (setting [4]), the pEC50 is 8.82. In addition, in data set [2], the CC50 at 5 days was 12900 nM.

With `O=C(NCc1c(F)cc(F)cc1F)c1cn2c(c(O)c1=O)C(=O)N1CCCC2CC1` (single isomer, unassigned) [Example 24-1, 11-hydroxy-1,10-dioxo-N-(2,4,6-trifluorobenzyl)-1,3,4,5,6,10-hexahydro-2,6-ethanopyrido[1,2-a][1,4]diazocine-9-carboxamide], the pEC50 in data set [1] (setting [4]) is 7.99. Also, in data set [2], the CC50 at 5 days came out at 13600 nM.

For the compound `O=C(NCc1ccc(F)cc1F)c1cn2c(c(O)c1=O)C(=O)N1C[C@H]2CCc2ccccc21` (single isomer, unassigned) [Example 37-1], in data set [1] (setting [4]), the pEC50 was 7.67. Further, the CC50 at 5 days in data set [2] came out at 10500 nM.

With `O=C(NCc1ccc(F)cc1F)c1cn2c(c(O)c1=O)C(=O)N1C[C@@H]2CCc2ccccc21` (single isomer, unassigned) [Example 37-2], the pEC50 in data set [1] (setting [4]) was 8.92. Moreover, the CC50 at 5 days in data set [2] worked out at 12900 nM.

`O=C(NCc1ccc(F)cc1F)c1cn2c(c(O)c1=O)C(=O)N1CC2CCc2cc(F)ccc21` (single isomer, unassigned) [Example 55-1]: the pEC50 in data set [1] was less than 7.05. Further, the CC50 at 5 days in data set [2] was 13000 nM.

As to `O=C(NCc1c(F)cc(F)cc1F)c1cn2c(c(O)c1=O)C(=O)N1CCc3ccccc3[C@@H]2C1` (single isomer, unassigned) [Example 63-2], the pEC50 in data set [1] (setting [4]) is 8.09. Besides, the CC50 at 5 days in data set [2] was 14300 nM.

For the compound `O=C(NCc1ccc(F)cc1F)c1cn2c(c(O)c1=O)C(=O)N1CCc3cc(F)c(F)cc3[C@@H]2C1` (single isomer, unassigned) [Example 111-2], the pEC50 in data set [1] (setting [4]) was 7.25. Besides, the CC50 at 5 days in data set [2] is 9940 nM.

Regarding `O=C(NCc1c(F)cc(F)cc1F)c1cn2c(c(O)c1=O)C(=O)N1Cc3ccc(Cl)cc3C[C@@H]2C1` (single isomer, unassigned) [Example 127-2], the pEC50 in data set [1] (setting [4]) is 8.41. The CC50 at 5 days in data set [2] stood at 13700 nM.

On to `O=C(NCc1ccc(F)cc1F)c1cn2c(c(O)c1=O)C(=O)N1Cc3ccc(Cl)cc3C[C@@H]2C1` (single isomer, unassigned) [Example 128-2], for which the pEC50 in data set [1] (setting [4]) is 8.13. Besides, in data set [2], the cytotoxic concentration (CC50) at 5 days is greater than 50000 nM.

Turning to `Cc1noc2c1CN1C[C@H](C2)n2cc(C(=O)NCc3c(F)cc(F)cc3F)c(=O)c(O)c2C1=O` (single isomer, unassigned) [Example 135-1], the pEC50 in data set [1] (setting [4]) is 8.47. For the same compound, in data set [2], the CC50 at 5 days was greater than 50000 nM.

As to `O=C(NCc1c(F)cc(F)cc1F)c1cn2c(c(O)c1=O)C(=O)N1CC=C(F)C[C@H]2C1` [Example 133, (7S)-5-fluoro-12-hydroxy-1,11-dioxo-N-(2,4,6-trifluorobenzyl)-1,6,7,11-tetrahydro-3H-2,7-methanopyrido[1,2-a][1,4]diazonine-10-carboxamide], the pEC50 in data set [3] (read-out: Antiviral Serum Shift RLuc 50% HS, HS/CCM (RPMI media, 10% FBS, 50% HS, 1% P/S), 72-h incubation) is 8.78; in data set [3] (read-out: Antiviral Serum Shift RLuc CCM, CCM (RPMI media, 10% FBS, 1% P/S), 72-h incubation) it was 9.27.
